Results from patent US20260250257A1, “ANTIBACTERIAL AND SYNERGISTIC ACTIVE COMPOUND AND USE THEREOF” (EAST CHINA UNIVERSITY OF SCIENCE AND TECHNOLOGY, priority 2023, published 2026).
In brackets after ≈: the same amount, converted by molar mass.

system: ATCC25922 strain (Escherichia coli); assay: Checkerboard antibacterial synergistic activity test with polymyxin E (FIC); format: cell-based; set-up: key: FIC≤0.5 synergy; 0.5–1 additive; 1–2 indifferent; ≥2 antagonism; conditions: combined with polymyxin E
Experimental: (§1) Polymyxin E was diluted in sterile MH broth medium to concentrations of 16, 8, 4, 2, 1, 0.5, 0.25, 0.125, 0.0625, 0.031, and 0.015 μg/ml, and the drug to be tested was diluted to concentrations of 256, 128, 64, 32, 16, 8, and 4 μg/ml. According to the checkerboard method, combinations of the drug to be tested and polymyxin at different concentrations in ascending order were placed into a 96-well plate, and corresponding blank control groups were set up. 50 μl of the drug solution was added to each well, then 100 μl of bacterial liquid was added, and incubated in a 37° C. incubator for 16 hours. […] Calculation and judgment criteria:
(§2) Fractional Inhibitory Concentration (FIC) is calculated as follows: […]
(§3) Judgment criteria: FIC≤0.5: synergistic effect; 0.5<FIC<1: additive effect; 1<FIC<2: indifferent effect; FIC≥2: antagonistic effect.
(§4) In the table: ATCC19606 strain is Acinetobacter baumannii, ATCC25922 strain is Escherichia coli, ATCC13883 strain is Klebsiella pneumoniae, ATCC9027 strain is Pseudomonas aeruginosa. All four strains were purchased from ATCC.

Structure (SMILES) | Synergistic activity (FIC value) ATCC25922
NC(N)=Nc1nc(-c2ccc3ccccn23)cs1 [Compound I-122] | 0.38
Cc1cc(C)c2c(-c3csc(N=C(N)N)n3)cccc2c1 [Compound I-61] | 0.5
NC(N)=Nc1nc(-c2cccc3cc(Cl)ccc23)co1 [Compound I-64] | 0.63
Cc1c(-c2coc(N=C3NCCCN3)n2)ccc(Cl)c1C#N [Compound I-169] | 0.39
NC(N)=Nc1nc(-c2ccccc2Oc2ccc(Cl)cc2Cl)cs1 [Compound I-85] | 0.26
Clc1cc(Oc2ccc(Cl)cc2Cl)cc(-c2csc(N=C3NCCCN3)n2)c1 [Compound I-160] | 0.18
CCc1sc(N=C2NCCCN2)nc1-c1cc(C)c(F)c(C)c1 [Compound I-172] | 0.63
N#Cc1ccc(-c2csc(N=C3NCCCN3)n2)c(Br)c1 [Compound I-174] | 0.63
CS(=O)(=O)c1ccc(Oc2ccccc2-c2nc(N=C(N)N)sc2Cl)cc1 [Compound I-103] | 0.53

system: ATCC13883 strain (Klebsiella pneumoniae); assay: as above; format: cell-based; set-up: key: FIC≤0.5 synergy; 0.5–1 additive; 1–2 indifferent; ≥2 antagonism; conditions: combined with polymyxin E
Experimental: as §1, §2, §3, §4

Structure (SMILES) | Synergistic activity (FIC value) ATCC13883
NC(N)=Nc1nc(-c2ccc3ccccn23)cs1 [Compound I-122] | 0.56
Cc1cc(C)c2c(-c3csc(N=C(N)N)n3)cccc2c1 [Compound I-61] | 0.63
NC(N)=Nc1nc(-c2cccc3cc(Cl)ccc23)co1 [Compound I-64] | 0.52
Cc1c(-c2coc(N=C3NCCCN3)n2)ccc(Cl)c1C#N [Compound I-169] | 0.33
NC(N)=Nc1nc(-c2ccccc2Oc2ccc(Cl)cc2Cl)cs1 [Compound I-85] | 0.19
Clc1cc(Oc2ccc(Cl)cc2Cl)cc(-c2csc(N=C3NCCCN3)n2)c1 [Compound I-160] | 0.16
CCc1sc(N=C2NCCCN2)nc1-c1cc(C)c(F)c(C)c1 [Compound I-172] | 0.52
N#Cc1ccc(-c2csc(N=C3NCCCN3)n2)c(Br)c1 [Compound I-174] | 0.52
CS(=O)(=O)c1ccc(Oc2ccccc2-c2nc(N=C(N)N)sc2Cl)cc1 [Compound I-103] | 1.25

system: ATCC9027 strain (Pseudomonas aeruginosa); assay: as above; format: cell-based; set-up: key: FIC≤0.5 synergy; 0.5–1 additive; 1–2 indifferent; ≥2 antagonism; conditions: combined with polymyxin E
Experimental: as §1, §2, §3, §4

Structure (SMILES) | Synergistic activity (FIC value) ATCC9027
NC(N)=Nc1nc(-c2ccc3ccccn23)cs1 [Compound I-122] | 0.75
Cc1cc(C)c2c(-c3csc(N=C(N)N)n3)cccc2c1 [Compound I-61] | 0.56
NC(N)=Nc1nc(-c2cccc3cc(Cl)ccc23)co1 [Compound I-64] | 1.25
Cc1c(-c2coc(N=C3NCCCN3)n2)ccc(Cl)c1C#N [Compound I-169] | 0.62
NC(N)=Nc1nc(-c2ccccc2Oc2ccc(Cl)cc2Cl)cs1 [Compound I-85] | 0.52
Clc1cc(Oc2ccc(Cl)cc2Cl)cc(-c2csc(N=C3NCCCN3)n2)c1 [Compound I-160] | 0.28
CCc1sc(N=C2NCCCN2)nc1-c1cc(C)c(F)c(C)c1 [Compound I-172] | 1.25
N#Cc1ccc(-c2csc(N=C3NCCCN3)n2)c(Br)c1 [Compound I-174] | 1.25
CS(=O)(=O)c1ccc(Oc2ccccc2-c2nc(N=C(N)N)sc2Cl)cc1 [Compound I-103] | 1.25

system: ATCC19606 strain (Acinetobacter baumannii); assay: as above; format: cell-based; set-up: key: FIC≤0.5 synergy; 0.5–1 additive; 1–2 indifferent; ≥2 antagonism; conditions: combined with polymyxin E
Experimental: as §1, §2, §3, §4

Structure (SMILES) | Synergistic activity (FIC value) ATCC19606
NC(N)=Nc1nc(-c2ccc3ccccn23)cs1 [Compound I-122] | 0.56
Cc1cc(C)c2c(-c3csc(N=C(N)N)n3)cccc2c1 [Compound I-61] | 0.75
NC(N)=Nc1nc(-c2cccc3cc(Cl)ccc23)co1 [Compound I-64] | 0.52
Cc1c(-c2coc(N=C3NCCCN3)n2)ccc(Cl)c1C#N [Compound I-169] | 0.15
NC(N)=Nc1nc(-c2ccccc2Oc2ccc(Cl)cc2Cl)cs1 [Compound I-85] | 0.04
Clc1cc(Oc2ccc(Cl)cc2Cl)cc(-c2csc(N=C3NCCCN3)n2)c1 [Compound I-160] | 0.03
CCc1sc(N=C2NCCCN2)nc1-c1cc(C)c(F)c(C)c1 [Compound I-172] | 0.52
N#Cc1ccc(-c2csc(N=C3NCCCN3)n2)c(Br)c1 [Compound I-174] | 0.52
CS(=O)(=O)c1ccc(Oc2ccccc2-c2nc(N=C(N)N)sc2Cl)cc1 [Compound I-103] | 1.25

system: ATCC25922 strain (Escherichia coli); assay: Broth microdilution, antibacterial activity of the compound used alone; format: cell-based; conditions: not given
Text: (§5) The broth microdilution method was used to test the antibacterial effects of the compounds of the present invention against various Gram-negative bacterial strains when used alone.

Structure (SMILES) | Antibacterial activity of the compound of Formula I, ATCC25922
NC(N)=Nc1nc(-c2ccc3ccccn23)cs1 [Compound I-122] | 256 µg/mL
Cc1cc(C)c2c(-c3csc(N=C(N)N)n3)cccc2c1 [Compound I-61] | 256 µg/mL
NC(N)=Nc1nc(-c2cccc3cc(Cl)ccc23)co1 [Compound I-64] | 256 µg/mL
Cc1c(-c2coc(N=C3NCCCN3)n2)ccc(Cl)c1C#N [Compound I-169] | 256 µg/mL
Clc1cc(Oc2ccc(Cl)cc2Cl)cc(-c2csc(N=C3NCCCN3)n2)c1 [Compound I-160] | 256 µg/mL
CCc1sc(N=C2NCCCN2)nc1-c1cc(C)c(F)c(C)c1 [Compound I-172] | 128 µg/mL
N#Cc1ccc(-c2csc(N=C3NCCCN3)n2)c(Br)c1 [Compound I-174] | 256 µg/mL
CS(=O)(=O)c1ccc(Oc2ccccc2-c2nc(N=C(N)N)sc2Cl)cc1 [Compound I-103] | 256 µg/mL

same assay, conditions: read-out: Antibacterial activity of the compound of Formula I, ATCC25922

MIC | Structure (SMILES)
256 µg/mL (≈ 675 µM) | NC(N)=Nc1nc(-c2ccccc2Oc2ccc(Cl)cc2Cl)cs1 [Compound I-85]

system: ATCC13883 strain (Klebsiella pneumoniae); assay: as above; format: cell-based; conditions: not given
Text: as §5

Structure (SMILES) | Antibacterial activity of the compound of Formula I, ATCC13883
NC(N)=Nc1nc(-c2ccc3ccccn23)cs1 [Compound I-122] | 256 µg/mL
Cc1cc(C)c2c(-c3csc(N=C(N)N)n3)cccc2c1 [Compound I-61] | 256 µg/mL
NC(N)=Nc1nc(-c2cccc3cc(Cl)ccc23)co1 [Compound I-64] | 256 µg/mL
Cc1c(-c2coc(N=C3NCCCN3)n2)ccc(Cl)c1C#N [Compound I-169] | 256 µg/mL
Clc1cc(Oc2ccc(Cl)cc2Cl)cc(-c2csc(N=C3NCCCN3)n2)c1 [Compound I-160] | 256 µg/mL
CCc1sc(N=C2NCCCN2)nc1-c1cc(C)c(F)c(C)c1 [Compound I-172] | 128 µg/mL
N#Cc1ccc(-c2csc(N=C3NCCCN3)n2)c(Br)c1 [Compound I-174] | 256 µg/mL
CS(=O)(=O)c1ccc(Oc2ccccc2-c2nc(N=C(N)N)sc2Cl)cc1 [Compound I-103] | 256 µg/mL

same assay, conditions: read-out: Antibacterial activity of the compound of Formula I, ATCC13883

MIC | Structure (SMILES)
256 µg/mL (≈ 675 µM) | NC(N)=Nc1nc(-c2ccccc2Oc2ccc(Cl)cc2Cl)cs1 [Compound I-85]

system: ATCC9027 strain (Pseudomonas aeruginosa); assay: as above; format: cell-based; conditions: not given
Text: as §5

Structure (SMILES) | Antibacterial activity of the compound of Formula I, ATCC9027
NC(N)=Nc1nc(-c2ccc3ccccn23)cs1 [Compound I-122] | 256 µg/mL
Cc1cc(C)c2c(-c3csc(N=C(N)N)n3)cccc2c1 [Compound I-61] | 256 µg/mL
NC(N)=Nc1nc(-c2cccc3cc(Cl)ccc23)co1 [Compound I-64] | 256 µg/mL
Cc1c(-c2coc(N=C3NCCCN3)n2)ccc(Cl)c1C#N [Compound I-169] | 256 µg/mL
Clc1cc(Oc2ccc(Cl)cc2Cl)cc(-c2csc(N=C3NCCCN3)n2)c1 [Compound I-160] | 256 µg/mL
CCc1sc(N=C2NCCCN2)nc1-c1cc(C)c(F)c(C)c1 [Compound I-172] | 64 µg/mL
N#Cc1ccc(-c2csc(N=C3NCCCN3)n2)c(Br)c1 [Compound I-174] | 256 µg/mL
CS(=O)(=O)c1ccc(Oc2ccccc2-c2nc(N=C(N)N)sc2Cl)cc1 [Compound I-103] | 256 µg/mL

same assay, conditions: read-out: Antibacterial activity of the compound of Formula I, ATCC9027

MIC | Structure (SMILES)
256 µg/mL (≈ 675 µM) | NC(N)=Nc1nc(-c2ccccc2Oc2ccc(Cl)cc2Cl)cs1 [Compound I-85]

system: ATCC19606 strain (Acinetobacter baumannii); assay: as above; format: cell-based; conditions: not given
Text: as §5

Structure (SMILES) | Antibacterial activity of the compound of Formula I, ATCC19606
NC(N)=Nc1nc(-c2ccc3ccccn23)cs1 [Compound I-122] | 256 µg/mL
Cc1cc(C)c2c(-c3csc(N=C(N)N)n3)cccc2c1 [Compound I-61] | 256 µg/mL
NC(N)=Nc1nc(-c2cccc3cc(Cl)ccc23)co1 [Compound I-64] | 256 µg/mL
Cc1c(-c2coc(N=C3NCCCN3)n2)ccc(Cl)c1C#N [Compound I-169] | 256 µg/mL
Clc1cc(Oc2ccc(Cl)cc2Cl)cc(-c2csc(N=C3NCCCN3)n2)c1 [Compound I-160] | 256 µg/mL
CCc1sc(N=C2NCCCN2)nc1-c1cc(C)c(F)c(C)c1 [Compound I-172] | 256 µg/mL
N#Cc1ccc(-c2csc(N=C3NCCCN3)n2)c(Br)c1 [Compound I-174] | 256 µg/mL
CS(=O)(=O)c1ccc(Oc2ccccc2-c2nc(N=C(N)N)sc2Cl)cc1 [Compound I-103] | 256 µg/mL

same assay, conditions: read-out: Antibacterial activity of the compound of Formula I, ATCC19606

MIC | Structure (SMILES)
256 µg/mL (≈ 675 µM) | NC(N)=Nc1nc(-c2ccccc2Oc2ccc(Cl)cc2Cl)cs1 [Compound I-85]
